Assay results taken from patent US8226943B2, “Antibodies to notch receptors” (OncoMed Pharmaceuticals, Inc., priority 2008, dated 2012).

What was measured:
human Notch3 = human Notch3 (Homo sapiens, UniProt Q9UM47); assay: FACS binding to transiently transfected HEK-293 cells, human Notch3; parameters: expressed in transfected cells
Experimental: The ability of the 59R1 IgG2 antibody to cross-react with other Notch receptors was determined by FACS assay using HEK-293 cells transiently transfected with the human Notch1, Notch2, Notch3 or Notch4 expression plasmid and green fluorescent protein (GFP) as a transfection control. GFP positive cells indicated expression of the transgene. The 59R1 IgG2 was added to the cells at 2 μg/ml and detected by PE-conjugated goat anti-human Fc gamma specific (Jackson Immunochemicals). All Notch constructs were full length.

stroma of T1 tumors = assay: Microarray gene expression in stroma of treated xenograft tumors, T1; format: in vivo, mice; conditions: 59R1 vs control
[1] = system: breast tumor xenograft line UM-T1; assay: UM-T1 breast tumor xenograft growth; format: in vivo, NOD/SCID mice
Experimental: (§1) The 59R1 IgG2 antibody was also tested in vivo in the breast tumor xenograft lines OMP-B34, OMP-B39, OMP-B44, PE13, and UM-T1, the pancreas tumor xenograft line OMP-PN8, and the colon tumor xenograft line OMP-C8. These tumor xenograft lines were established by adhering to procedures described in Al-Hajj et al., 2003, Proc. Natl. Acad. Sci. USA, 100:3983-3988. Female NOD/SCID immuno-compromised mice 7-10 weeks old were used for the establishment of the breast tumor xenografts and male NOD/SCID mice were used for the OMP-Pn8 and OMP-C8 tumor-models (Harlan, Indianapolis, Ind.). The 59R1 IgG2 antibody was also tested in vivo in a Colo-205 colon tumor xenograft model. Female immunodeficient bg/nu XID mice on a Swiss CD-1 background were used for the Colo-205 xenograft tumor model. In case of the breast cancer models, slow-releasing estrogen pellets (0.36 mg) had to be implanted. Mice were subcutaneously injected on the right flank with 50,000 (OMP-B34, OMP-B39, OMP-B44, PE13, and UM-T1) or 1×10^7 (Colo-205) viable cells, respectively, in a mixture of PBS (without magnesium or calcium) and Matrigel at a 1:1 ratio. […] Antibodies were administered weekly and tumors measured twice weekly. […] Tumor volume was calculated as described Al-Hajj et al. (2003). Data are expressed as the mean and the mean±S.E.M. Group means were compared using Student's two-tailed, unpaired t-test. […]

[2] = system: breast tumor xenograft line OMP-B39; assay: OMP-B39 breast tumor xenograft growth; format: in vivo, NOD/SCID mice; conditions: established tumors, 15 mg/kg once a week
Experimental: as §1

stroma of Colo205 tumors = assay: Microarray gene expression in stroma of treated xenograft tumors, Colo205; format: in vivo, mice; conditions: 59R1 vs control
M4 melanoma tumor cells = assay: M4 melanoma xenograft growth; format: in vivo, NOD-SCID mice; conditions: 10 mg/kg twice per week
Experimental: M4 melanoma tumor cells (10,000 cells per mouse) were injected subcutaneously into the flank region of NOD-SCID mice. Tumors were allowed to grow for 25 days until they had reached an average volume of ˜80 mm^3. Animals were randomized into treatment groups (n=10/group) and treatments were initiated. One group received a control antibody (1B711) at 10 mg/kg twice per week and one group received 59R1 at 10 mg/kg twice per week. Tumor volumes were measured on the indicated days.

[3] = system: breast tumor xenograft line OMP-B34; assay: OMP-B34 breast tumor xenograft growth; format: in vivo, NOD/SCID mice; conditions: established tumors, 15 mg/kg once a week
Experimental: as §1

human Notch2 = human Notch2 (Homo sapiens, UniProt Q04721); assay: FACS binding to human Notch2 on stably transfected HEK-293 cells; parameters: expressed in transfected cells; host or cells: HEK-293, stably transfected; conditions: HEK-293 stably overexpressing human Notch2
Experimental: A particular Fab (59R1) was identified that bound the human Notch2 receptor and blocked binding of Jagged1 to human Notch2. Binding of the 59R1 Fab to human Notch2 was verified by FACS assay using a stable human cell line HEK-293 which overexpressed human Notch2 (hN2) (FIG. 1A). Fab binding was detected by phycoerythrin (PE)-conjugated goat anti-human Fab (Jackson Immunochemicals). […] Ligand binding and blocking was determined by incubating hJagged 1 extracellular domain (ECD) fused to human Fc constant region with the cells and Fabs selected from the phage library and using PE-conjugated goat anti-human Fc gamma specific antibodies (Jackson Immunochemicals) for detection.
In addition, the 59R1 IgG2 antibody was assayed for its ability to block binding of DLL4 to the human Notch 2 receptor by FACS analysis. HEK-293 cells stably overexpressing human Notch2 were incubated with the antibody at various concentration and then detected for hNotch2 binding (FIG. 1C) by PE-conjugated goat anti-human Fc gamma specific antibody, or ligand blocking activity (FIG. 1D). Ligand blocking was determined by incubating the cells with human DLL4 ECD tagged with the rabbit Fc constant region and the 59R1 antibody at a range of concentrations, and then detecting the hDLL4 by PE-conjugated donkey anti-rabbit antibody. […]

[4] = system: breast tumor xenograft line OMP-B44; assay: OMP-B44 breast tumor xenograft growth; format: in vivo, NOD/SCID mice; conditions: established tumors, 15 mg/kg once a week
Experimental: as §1

murine Notch2 = assay: DLL4-Fc induced receptor activation in transfected PC3 cells, murine Notch2; format: cell-based, mouse; conditions: immobilized DLL4-Fc
Experimental: 59R5 was determined to have similar activity in blocking Notch2 and Notch3 signaling as 59R1. Receptor activation was determined in luciferase-based assays. PC3 tumor cells were transiently transfected with a human or mouse Notch receptor (human Notch2, murine Notch2, human Notch3, or murine Notch3) and […] inducible reporter construct. Transfected cells were incubated with different concentrations of 59R1 or 59R5 antibody in the presence of passively immobilized DLL4-Fc protein. Notch receptor activation was determined by measuring luciferase activity.

Sequence of human Notch2 (Q04721 26-2471): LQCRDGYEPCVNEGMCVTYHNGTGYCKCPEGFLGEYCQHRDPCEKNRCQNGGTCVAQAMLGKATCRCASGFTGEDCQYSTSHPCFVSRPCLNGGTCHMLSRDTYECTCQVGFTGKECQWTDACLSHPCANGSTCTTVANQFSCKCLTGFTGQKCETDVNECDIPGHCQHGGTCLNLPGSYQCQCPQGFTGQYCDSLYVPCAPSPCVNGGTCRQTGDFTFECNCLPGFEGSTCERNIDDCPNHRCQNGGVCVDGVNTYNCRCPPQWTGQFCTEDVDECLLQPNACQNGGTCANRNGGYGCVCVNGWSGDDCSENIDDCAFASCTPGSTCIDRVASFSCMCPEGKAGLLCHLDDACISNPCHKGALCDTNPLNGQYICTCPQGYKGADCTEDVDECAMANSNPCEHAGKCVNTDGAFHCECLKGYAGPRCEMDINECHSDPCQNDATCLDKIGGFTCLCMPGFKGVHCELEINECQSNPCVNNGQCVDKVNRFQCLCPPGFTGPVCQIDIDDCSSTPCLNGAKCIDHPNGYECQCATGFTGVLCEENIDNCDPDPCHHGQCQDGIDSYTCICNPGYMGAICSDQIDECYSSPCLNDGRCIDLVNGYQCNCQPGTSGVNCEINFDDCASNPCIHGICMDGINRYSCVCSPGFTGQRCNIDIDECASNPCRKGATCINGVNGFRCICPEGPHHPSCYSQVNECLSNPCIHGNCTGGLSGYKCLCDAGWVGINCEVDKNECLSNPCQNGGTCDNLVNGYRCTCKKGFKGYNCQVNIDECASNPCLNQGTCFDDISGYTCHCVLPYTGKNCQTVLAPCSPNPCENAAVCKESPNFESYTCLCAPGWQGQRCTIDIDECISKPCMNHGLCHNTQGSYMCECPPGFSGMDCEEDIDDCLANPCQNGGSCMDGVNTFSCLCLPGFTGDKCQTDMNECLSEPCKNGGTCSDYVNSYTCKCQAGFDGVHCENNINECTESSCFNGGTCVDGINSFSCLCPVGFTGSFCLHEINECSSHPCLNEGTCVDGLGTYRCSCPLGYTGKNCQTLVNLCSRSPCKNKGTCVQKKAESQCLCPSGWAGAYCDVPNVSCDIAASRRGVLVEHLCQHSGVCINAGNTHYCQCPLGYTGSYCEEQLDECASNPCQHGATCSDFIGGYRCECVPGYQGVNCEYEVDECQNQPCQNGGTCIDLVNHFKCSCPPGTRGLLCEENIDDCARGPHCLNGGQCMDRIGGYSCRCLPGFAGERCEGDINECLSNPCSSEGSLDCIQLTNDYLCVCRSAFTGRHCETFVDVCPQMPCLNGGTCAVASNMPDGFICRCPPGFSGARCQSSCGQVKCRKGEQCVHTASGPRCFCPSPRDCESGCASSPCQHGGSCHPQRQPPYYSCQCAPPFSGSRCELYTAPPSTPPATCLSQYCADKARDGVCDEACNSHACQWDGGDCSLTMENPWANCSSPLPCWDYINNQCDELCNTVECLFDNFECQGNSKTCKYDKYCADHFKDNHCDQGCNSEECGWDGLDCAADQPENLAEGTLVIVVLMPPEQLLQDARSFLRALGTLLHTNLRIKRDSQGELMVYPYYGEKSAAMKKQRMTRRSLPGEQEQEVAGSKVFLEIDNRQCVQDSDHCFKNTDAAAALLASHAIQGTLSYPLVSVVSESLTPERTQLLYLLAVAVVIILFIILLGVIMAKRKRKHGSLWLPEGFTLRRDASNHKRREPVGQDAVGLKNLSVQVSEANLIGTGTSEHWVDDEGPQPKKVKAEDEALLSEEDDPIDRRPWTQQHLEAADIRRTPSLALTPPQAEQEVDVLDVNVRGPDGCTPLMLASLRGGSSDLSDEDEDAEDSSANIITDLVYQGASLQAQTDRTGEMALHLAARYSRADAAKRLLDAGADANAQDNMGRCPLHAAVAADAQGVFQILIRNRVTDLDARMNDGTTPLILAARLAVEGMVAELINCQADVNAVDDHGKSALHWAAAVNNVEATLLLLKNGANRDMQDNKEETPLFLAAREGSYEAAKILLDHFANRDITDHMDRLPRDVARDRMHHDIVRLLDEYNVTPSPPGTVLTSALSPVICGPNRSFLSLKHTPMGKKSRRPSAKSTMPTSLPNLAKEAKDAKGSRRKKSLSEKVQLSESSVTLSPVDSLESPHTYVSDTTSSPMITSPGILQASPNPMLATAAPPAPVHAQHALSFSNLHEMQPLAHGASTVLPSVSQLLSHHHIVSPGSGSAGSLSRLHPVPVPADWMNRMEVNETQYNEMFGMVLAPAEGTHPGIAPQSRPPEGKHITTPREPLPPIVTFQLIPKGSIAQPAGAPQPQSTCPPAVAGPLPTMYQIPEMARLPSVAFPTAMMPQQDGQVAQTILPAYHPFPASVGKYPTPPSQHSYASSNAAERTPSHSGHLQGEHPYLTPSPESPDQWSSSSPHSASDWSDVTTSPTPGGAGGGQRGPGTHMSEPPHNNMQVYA
Sequence of human Notch3 (Q9UM47 40-2321): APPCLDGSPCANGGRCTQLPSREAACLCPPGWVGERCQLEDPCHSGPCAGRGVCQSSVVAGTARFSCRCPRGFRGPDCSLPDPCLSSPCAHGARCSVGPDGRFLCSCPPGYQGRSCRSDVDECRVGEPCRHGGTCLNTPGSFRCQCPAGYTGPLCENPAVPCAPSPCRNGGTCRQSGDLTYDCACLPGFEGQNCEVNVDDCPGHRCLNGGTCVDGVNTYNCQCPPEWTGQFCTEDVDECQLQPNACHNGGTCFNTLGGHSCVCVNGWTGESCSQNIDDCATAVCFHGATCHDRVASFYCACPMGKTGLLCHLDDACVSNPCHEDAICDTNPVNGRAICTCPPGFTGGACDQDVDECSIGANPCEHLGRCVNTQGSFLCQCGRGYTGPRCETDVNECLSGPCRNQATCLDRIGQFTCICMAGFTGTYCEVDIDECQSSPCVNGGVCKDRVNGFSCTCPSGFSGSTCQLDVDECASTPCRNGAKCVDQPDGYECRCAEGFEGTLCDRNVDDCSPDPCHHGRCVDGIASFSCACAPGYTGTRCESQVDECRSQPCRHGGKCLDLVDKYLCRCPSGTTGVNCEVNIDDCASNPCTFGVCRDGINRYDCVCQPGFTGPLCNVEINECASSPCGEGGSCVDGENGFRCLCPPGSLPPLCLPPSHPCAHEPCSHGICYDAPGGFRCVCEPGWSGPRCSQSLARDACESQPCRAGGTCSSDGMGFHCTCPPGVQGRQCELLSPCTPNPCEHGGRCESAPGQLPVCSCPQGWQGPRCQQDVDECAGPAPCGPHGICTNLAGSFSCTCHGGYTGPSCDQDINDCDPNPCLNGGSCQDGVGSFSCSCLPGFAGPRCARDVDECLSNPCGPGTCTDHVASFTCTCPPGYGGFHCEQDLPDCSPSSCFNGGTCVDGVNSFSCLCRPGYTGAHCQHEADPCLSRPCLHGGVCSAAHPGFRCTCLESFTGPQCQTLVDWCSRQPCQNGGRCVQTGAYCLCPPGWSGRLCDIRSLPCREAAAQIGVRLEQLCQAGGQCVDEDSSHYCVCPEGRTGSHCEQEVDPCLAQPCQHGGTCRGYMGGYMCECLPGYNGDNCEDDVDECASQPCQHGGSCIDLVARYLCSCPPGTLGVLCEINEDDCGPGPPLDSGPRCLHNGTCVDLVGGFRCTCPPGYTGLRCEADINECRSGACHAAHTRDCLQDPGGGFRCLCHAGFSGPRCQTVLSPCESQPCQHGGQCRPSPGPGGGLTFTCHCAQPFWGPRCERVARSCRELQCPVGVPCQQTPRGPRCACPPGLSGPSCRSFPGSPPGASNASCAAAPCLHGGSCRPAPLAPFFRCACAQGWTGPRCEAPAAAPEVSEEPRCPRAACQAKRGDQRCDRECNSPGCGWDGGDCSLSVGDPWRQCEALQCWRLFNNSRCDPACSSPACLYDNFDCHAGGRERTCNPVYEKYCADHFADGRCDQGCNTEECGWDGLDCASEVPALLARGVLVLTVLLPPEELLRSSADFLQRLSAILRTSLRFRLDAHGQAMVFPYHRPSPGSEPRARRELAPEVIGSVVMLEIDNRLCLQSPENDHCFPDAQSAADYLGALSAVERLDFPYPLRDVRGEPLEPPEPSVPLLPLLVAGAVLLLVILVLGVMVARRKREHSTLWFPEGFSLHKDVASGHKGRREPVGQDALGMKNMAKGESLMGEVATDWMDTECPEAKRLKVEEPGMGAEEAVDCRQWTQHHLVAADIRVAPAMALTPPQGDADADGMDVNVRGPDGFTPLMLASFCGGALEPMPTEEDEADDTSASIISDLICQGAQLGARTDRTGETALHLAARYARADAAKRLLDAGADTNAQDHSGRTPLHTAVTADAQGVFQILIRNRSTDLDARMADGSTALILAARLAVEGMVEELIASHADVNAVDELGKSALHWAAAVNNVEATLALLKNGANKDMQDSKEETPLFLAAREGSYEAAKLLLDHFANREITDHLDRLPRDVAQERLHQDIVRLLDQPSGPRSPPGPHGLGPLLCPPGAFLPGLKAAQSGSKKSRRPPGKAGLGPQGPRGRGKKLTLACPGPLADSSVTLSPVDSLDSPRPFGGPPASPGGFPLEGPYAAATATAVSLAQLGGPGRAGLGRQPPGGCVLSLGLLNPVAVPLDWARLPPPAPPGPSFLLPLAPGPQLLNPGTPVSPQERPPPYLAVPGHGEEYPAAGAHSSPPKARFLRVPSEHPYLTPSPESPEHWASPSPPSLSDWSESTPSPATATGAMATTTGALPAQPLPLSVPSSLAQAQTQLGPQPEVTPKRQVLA

59R1: human IgG2 antibody binding Notch2 and Notch3; heavy and light chain SEQ ID NO:16 and 18; ATCC PTA-9547
binding to full-length human Notch3 (FACS) (human Notch3): specifically binds | Fold 1416286_at (Rgs4) (stroma of T1 tumors): −1.13 | Fold 1417466_at (Rgs5) (stroma of T1 tumors): −1.99 | Fold 1417714_x_at (Hba-al/Hba-a2) (stroma of T1 tumors): 1.42 | Fold 1418829_a_at (Eno2) (stroma of T1 tumors): 1.29 | Fold 1419302_at (Heyl) (stroma of T1 tumors): −1.07 | Fold 1420872_at (Gucy1b3) (stroma of T1 tumors): −1.01 | Fold 1420941_at (Rgs5) (stroma of T1 tumors): −1.97 | Fold 1420942_s_at (Rgs5) (stroma of T1 tumors): −1.18 | Fold 1421964_at (Notch3) (stroma of T1 tumors): −1.01 | Fold 1422789_at (Aldh1a2) (stroma of T1 tumors): −2.16 | Fold 1428361_x_at (Hba-al/Hba-a2) (stroma of T1 tumors): 1.73 | Fold 1434141_at (Gucy1a3) (stroma of T1 tumors): 1.20 | Fold 1449280_at (Esm1) (stroma of T1 tumors): 1.18 | Fold 1449632_s_at (Fkbp10) (stroma of T1 tumors): 1.07 | Fold 1451501_a_at (Ghr) (stroma of T1 tumors): −1.12 | Fold 1452590_a_at (Plac9) (stroma of T1 tumors): 1.20 | Fold 1459713_s_at (Tmem16a) (stroma of T1 tumors): −2.14 | T1 breast tumor growth ([1]; in the absence of estrogen treatment): ineffective | T1 breast tumor growth ([1]; in the presence of estrogen, 15 mg/kg once a week): effective at inhibiting tumor growth | B39 breast cancer growth relative to control antibody [2]: inhibit breast cancer growth | Fold 1416286_at (Rgs4) (stroma of Colo205 tumors): −3.08 | Fold 1418829_a_at (Eno2) (stroma of Colo205 tumors): 1.79 | Fold 1419302_at (Heyl) (stroma of Colo205 tumors): −3.28 | Fold 1420941_at (Rgs5) (stroma of Colo205 tumors): −5.10 | Fold 1422789_at (Aldh1a2) (stroma of Colo205 tumors): −1.73 | Fold 1428361_x_at (Hba-al/Hba-a2) (stroma of Colo205 tumors): −8.91 | Fold 1449280_at (Esm1) (stroma of Colo205 tumors): 2.07 | Fold 1449632_s_at (Fkbp10) (stroma of Colo205 tumors): −1.72 | Fold 1459713_s_at (Tmem16a) (stroma of Colo205 tumors): −1.90 | M4 melanoma tumor growth (M4 melanoma tumor cells): inhibited | B34 breast cancer growth relative to control antibody [3]: inhibit breast cancer growth | binding to human Notch2 (FACS) (human Notch2): confirmed | B44 breast cancer growth relative to control antibody [4]: inhibit breast cancer growth

59R5: human antibody that specifically binds human Notch 2 and human Notch 3; heavy and light chain SEQ ID NO:49 and 18; ATCC PTA-10170
ligand-induced activation of murine Notch2 receptor signaling (murine Notch2): blocked
